Measured values: US20250049035A1, “MICROBIOCIDAL BICYCLE HETEROCYCLIC DERIVATIVES” (SYNGENTA CROP PROTECTION AG, priority 2021, published 2025)

What was measured:
[1] = system: Glomerella lagenarium (Colletotrichum lagenarium); test: Glomerella lagenarium (Colletotrichum lagenarium) / liquid culture (anthracnose); type: cell-based; conditions: Colletotrichum orbiculare, liquid culture (potato dextrose broth), growth inhibition photometrically 3-4 days after application, compared to untreated control
Description: Example B3: Glomerella lagenarium (Colletotrichum lagenarium)/Liquid Culture (Anthracnose) Conidia of the fungus from cryogenic storage are directly mixed into a nutrient broth (potato dextrose broth). After placing a DMSO solution of test compound into a microtiter plate (96-well format), the nutrient broth containing the fungal spores is added. The test plates are incubated at 24° C. and the inhibition of growth is measured photometrically 3-4 days after application.

Alternaria solani = Alternaria solani / tomato / leaf disc (early blight); type: in vivo; conditions: foliar, tomato leaf disks cv. Baby, inoculated 2 days after application, assessed 5-7 days after application, compared to untreated control
Description: Example B1: Alternaria solani/Tomato/Leaf Disc (Early Blight) Tomato leaf disks cv. Baby are placed on agar in multiwell plates (24-well format) and sprayed with the formulated test compound diluted in water. The leaf disks are inoculated with a spore suspension of the fungus 2 days after application. The inoculated leaf disks are incubated at 23° C./21° C.

Pyrenophora teres = Pyrenophora teres / barley / leaf disc preventative (net blotch); type: in vivo; conditions: foliar, barley leaf segments cv. Hasso, inoculated 2 days after application, assessed 5-7 days after application, compared to untreated control
Description: Example B12: Pyrenophora teres/Barley/Leaf Disc Preventative (Net Blotch) Barley leaf segments cv. Hasso are placed on agar in a multiwell plate (24-well format) and sprayed with the formulated test compound diluted in water. The leaf segments are inoculated with a spore suspension of the fungus 2 days after application. The inoculated leaf segments are incubated at 20° C. and 65% relative humidity under a light regime of 12 h light/12 h darkness in a climate cabinet and the activity of a compound is assessed as disease control compared to untreated when an appropriate level of disease damage appears in untreated check leaf segments (5-7 days after application).

[2] = system: Botryotinia fuckeliana (Botrytis cinerea); test: Botryotinia fuckeliana (Botrytis cinerea) / liquid culture (gray mould); type: cell-based; conditions: liquid culture (Vogels broth), growth inhibition photometrically 3-4 days after application, compared to untreated control
Description: Example B2: Botryotinia fuckeliana (Botrytis cinerea)/Liquid Culture (Gray Mould) Conidia of the fungus from cryogenic storage are directly mixed into a nutrient broth (Vogels broth). After placing a DMSO solution of test compound into a microtiter plate (96-well format), the nutrient broth containing the fungal spores is added. The test plates are incubated at 24° C. and the inhibition of growth is determined photometrically 3-4 days after application.

[3] = system: Phaeosphaeria nodorum (Septoria nodorum); test: Phaeosphaeria nodorum (Septoria nodorum) / wheat / leaf disc preventative (glume blotch); type: in vivo; conditions: Parastagonospora nodorum, foliar, wheat leaf segments cv. Kanzler, inoculated 2 days after application, assessed 5-7 days after application, compared to untreated control
Description: Example B8: Phaeosphaeria Nodorum (Septoria nodorum)/Wheat/Leaf Disc Preventative (Glume Blotch) Wheat leaf segments cv. Kanzler are placed on agar in a multiwell plate (24-well format) and sprayed with the formulated test compound diluted in water. The leaf disks are inoculated with a spore suspension of the fungus 2 days after application. The inoculated test leaf disks are incubated at 20° C. and 75% relative humidity under a light regime of 12 h light/12 h darkness in a climate cabinet and the activity of a compound is assessed as percent disease control compared to untreated when an appropriate level of disease damage appears in untreated check leaf disks (5-7 days after application).

Fusarium culmorum = test: microbe, parasite or virus in culture; type: cell-based; conditions: read-out: control of Fusarium culmorum
[4] = system: Mycosphaerella graminicola (Septoria tritici); test: Mycosphaerella graminicola (Septoria tritici) / liquid culture (Septoria blotch); type: cell-based; conditions: Zymoseptoria tritici, liquid culture (potato dextrose broth), growth inhibition photometrically 4-5 days after application, compared to untreated control
Description: Example B15: Mycosphaerella graminicola (Septoria tritici/Liquid Culture (Septoria Blotch) Conidia of the fungus from cryogenic storage are directly mixed into a nutrient broth (potato dextrose broth). After placing a DMSO solution of test compound into a microtiter plate (96-well format), the nutrient broth containing the fungal spores is added. The test plates are incubated at 24° C. and the inhibition of growth is determined photometrically 4-5 days after application.

[5] = system: Blumeria graminis f. sp. tritici (Erysiphe graminis f. sp. tritici); test: Blumeria graminis f. sp. tritici / wheat / leaf disc preventative (powdery mildew); type: in vivo; conditions: foliar, wheat leaf segments cv. Kanzler, inoculated 1 day after application, assessed 6-8 days after application, compared to untreated control
Description: Example B4: Blumeria graminis f. sp. tritici (Erysiphe graminis f. sp. tritici)/Wheat/Leaf Disc Preventative (Powdery Mildew on Wheat) Wheat leaf segments cv. Kanzler are placed on agar in a multiwell plate (24-well format) and sprayed with the formulated test compound diluted in water. The leaf disks are inoculated by shaking powdery mildew infected plants above the test plates 1 day after application. The inoculated leaf disks are incubated at 20° C. and 60% relative humidity under a light regime of 24 h darkness followed by 12 h light/12 h darkness in a climate chamber and the activity of a compound is assessed as percent disease control compared to untreated when an appropriate level of disease damage appears on untreated check leaf segments (6-8 days after application).

Sclerotinia sclerotiorum = Sclerotinia sclerotiorum / liquid culture (cottony rot); type: cell-based; conditions: liquid culture (potato dextrose broth), growth inhibition photometrically 3-4 days after application, compared to untreated control
Description: Example B14: Sclerotinia sclerotiorum/Liquid Culture (Cottony Rot) Mycelia fragments of a newly grown liquid culture of the fungus are directly mixed into a nutrient broth (potato dextrose broth). After placing a DMSO solution of test compound into a microtiter plate (96-well format) the nutrient broth containing the fungal material is added. The test plates are incubated at 24° C. and the inhibition of growth is determined photometrically 3-4 days after application.

[6] = system: Mycosphaerella arachidis (Cercospora arachidicola); test: Mycosphaerella arachidis (Cercospora arachidicola) / liquid culture (early leaf spot); type: cell-based; conditions: liquid culture (potato dextrose broth), growth inhibition photometrically 4-5 days after application, compared to untreated control
Description: Example B10: Mycosphaerella arachidis (Cercospora arachidicola)/Liquid Culture (Early Leaf Spot) Conidia of the fungus from cryogenic storage are directly mixed into a nutrient broth (potato dextrose broth) After placing a DMSO solution of test compound into a microtiter plate (96-well format), the nutrient broth containing the fungal spores is added. The test plates are incubated at 24° C. and the inhibition of growth is determined photometrically 4-5 days after application.

[7] = system: Monographella nivalis (Microdochium nivale); test: Monographella nivalis (Microdochium nivale) / liquid culture (foot rot cereals); type: cell-based; conditions: liquid culture (potato dextrose broth), growth inhibition photometrically 4-5 days after application, compared to untreated control
Description: Example B9: Monographella nivalis (Microdochium nivale)/Liquid Culture (Foot Rot Cereals) Conidia of the fungus from cryogenic storage are directly mixed into a nutrient broth (potato dextrose broth). After placing a DMSO solution of test compound into a microtiter plate (96-well format), the nutrient broth containing the fungal spores is added. The test plates are incubated at 24° C. and the inhibition of growth is determined photometrically 4-5 days after application.

C[C@H]1c2sccc2[C@@H](c2cnn(C)c2)CN1C(=O)c1cc(-c2ccc(F)cc2F)on1 (racemic) [Compound P-14, [5-(2,4-difluorophenyl)isoxazol-3-yl]-[rac-(4R,7S)-7-methyl-4-(1-methylpyrazol-4-yl)-5,7-dihydro-4H-thieno[2,3-c]pyridin-6-yl]methanone]
≥ 80%: inhibition of growth at 20 ppm [1] | pest or weed control at 200 ppm (Alternaria solani) | pest or weed control at 200 ppm (Pyrenophora teres) | inhibition of growth at 20 ppm [2] | pest or weed control at 200 ppm [3] | inhibition of growth at 20 ppm (Fusarium culmorum) | inhibition of growth at 20 ppm [4] | pest or weed control at 200 ppm [5] | inhibition of growth at 20 ppm (Sclerotinia sclerotiorum) | inhibition of growth at 20 ppm [6]

C[C@H]1c2sccc2[C@@H](c2cnn(C)c2)CN1C(=O)c1nnc(-c2ccc(F)cc2F)s1 (racemic) [Compound P-15, [5-(2,4-difluorophenyl)-1,3,4-thiadiazol-2-yl]-[rac-(4R,7S)-7-methyl-4-(1-methylpyrazol-4-yl)-5,7-dihydro-4H-thieno[2,3-c]pyridin-6-yl]methanone]
≥ 80%: inhibition of growth at 20 ppm [1] | pest or weed control at 200 ppm (Alternaria solani) | pest or weed control at 200 ppm (Pyrenophora teres) | inhibition of growth at 20 ppm [2] | pest or weed control at 200 ppm [3] | inhibition of growth at 20 ppm (Fusarium culmorum) | inhibition of growth at 20 ppm [4] | pest or weed control at 200 ppm [5] | inhibition of growth at 20 ppm [6]

Cc1c([C@H]2CN(C(=O)c3cc(-c4ccc(F)cc4F)on3)Cc3ccsc32)cnn1C [Compound P-3, [5-(2,4-difluorophenyl)isoxazol-3-yl]-[(7S)-7-(1,5-dimethylpyrazol-4-yl)-6,7-dihydro-4H-thieno[3,2-c]pyridin-5-yl]methanone]
≥ 80%: inhibition of growth at 20 ppm [1] | pest or weed control at 200 ppm (Alternaria solani) | pest or weed control at 200 ppm (Pyrenophora teres) | inhibition of growth at 20 ppm [2] | pest or weed control at 200 ppm [3] | inhibition of growth at 20 ppm (Fusarium culmorum) | inhibition of growth at 20 ppm [4] | pest or weed control at 200 ppm [5] | inhibition of growth at 20 ppm (Sclerotinia sclerotiorum) | inhibition of growth at 20 ppm [7]

Cc1c(C2CN(C(=O)c3nnc(-c4ccc(F)cc4F)s3)Cc3ccsc32)cnn1C (stereo not shown) [Compound P-7, [5-(2,4-difluorophenyl)-1,3,4-thiadiazol-2-yl]-[7-(1,5-dimethylpyrazol-4-yl)-6,7-dihydro-4H-thieno[3,2-c]pyridin-5-yl]methanone]
≥ 80%: inhibition of growth at 20 ppm [1] | inhibition of growth at 20 ppm [2] | inhibition of growth at 20 ppm (Fusarium culmorum) | inhibition of growth at 20 ppm [4] | pest or weed control at 200 ppm [5] | inhibition of growth at 20 ppm (Sclerotinia sclerotiorum) | inhibition of growth at 20 ppm [7] | inhibition of growth at 20 ppm [6]

Cn1cc(C2CN(C(=O)c3nnc(-c4ccc(F)cc4F)s3)Cc3sccc32)cn1 (stereo not shown) [Compound P-24, [5-(2,4-difluorophenyl)-1,3,4-thiadiazol-2-yl]-[4-(1-methylpyrazol-4-yl)-5,7-dihydro-4H-thieno[2,3-c]pyridin-6-yl]methanone]
≥ 80%: inhibition of growth at 20 ppm [1] | pest or weed control at 200 ppm (Alternaria solani) | pest or weed control at 200 ppm (Pyrenophora teres) | inhibition of growth at 20 ppm [2] | pest or weed control at 200 ppm [3] | inhibition of growth at 20 ppm (Fusarium culmorum) | inhibition of growth at 20 ppm [4] | inhibition of growth at 20 ppm (Sclerotinia sclerotiorum) | inhibition of growth at 20 ppm [7] | inhibition of growth at 20 ppm [6]

Cc1c(C2CN(C(=O)c3nnc(-c4ccc(F)cc4F)s3)Cc3sccc32)cnn1C (stereo not shown) [Compound P-25, [5-(2,4-difluorophenyl)-1,3,4-thiadiazol-2-yl]-[4-(1,5-dimethylpyrazol-4-yl)-5,7-dihydro-4H-thieno[2,3-c]pyridin-6-yl]methanone]
≥ 80%: inhibition of growth at 20 ppm [1] | pest or weed control at 200 ppm (Alternaria solani) | pest or weed control at 200 ppm (Pyrenophora teres) | inhibition of growth at 20 ppm [2] | pest or weed control at 200 ppm [3] | inhibition of growth at 20 ppm (Fusarium culmorum) | inhibition of growth at 20 ppm [4] | pest or weed control at 200 ppm [5] | inhibition of growth at 20 ppm (Sclerotinia sclerotiorum) | inhibition of growth at 20 ppm [7]

Cc1c(C2CN(C(=O)c3cc(-c4ccccc4F)on3)Cc3ccsc32)cnn1C (stereo not shown) [Compound P-34, [7-(1,5-dimethylpyrazol-4-yl)-6,7-dihydro-4H-thieno[3,2-c]pyridin-5-yl]-[5-(2-fluorophenyl)isoxazol-3-yl]methanone]
≥ 80%: inhibition of growth at 20 ppm [1] | pest or weed control at 200 ppm (Alternaria solani) | pest or weed control at 200 ppm (Pyrenophora teres) | inhibition of growth at 20 ppm [2] | pest or weed control at 200 ppm [3] | inhibition of growth at 20 ppm (Fusarium culmorum) | inhibition of growth at 20 ppm [4] | inhibition of growth at 20 ppm (Sclerotinia sclerotiorum) | inhibition of growth at 20 ppm [7] | inhibition of growth at 20 ppm [6]
